In patent US7585861B2, “HIV inhibiting 1,2,4-triazines” (Janssen Pharmaceutica, N.V., priority 2003, dated 2009):

Tests used:
[1] = tested on: mock-infected MT-4 cells; experiment: Test B: cytotoxicity in mock-infected MT-4 cells engineered with GFP under a constitutional promoter; type: cell-based
Experimental: (§1) An […] T4-cell line, MT-4, which was previously shown (Koyanagi et al., Int. J. Cancer, 36, 445-451, 1985) to be highly susceptible to and permissive for HIV infection, served as the target cell line. In these cells, engineered with GFP (and an HIV-specific promotor), ongoing HIV-infection was measured fluorometrically. Cytotoxicity is measured in the same cells, but engineered with GFP under a constitutional promoter. The infection (or inhibition thereof) of HIV infected cells and the flourescence of mock-infected cells is assessed by the fluorescent GFP signal generated by the two above mentioned cell lines.

[2] = tested on: mock-infected MT-4 cells; experiment: Test A: cytotoxicity in mock-infected MT-4 cells (MTT); type: cell-based
Experimental: (§2) A rapid, sensitive and automated assay procedure was used for the in vitro evaluation of anti-HIV agents. An […] T4-cell line, MT-4, which was previously shown (Koyanagi et al., Int. J. Cancer, 36, 445-451, 1985) to be highly susceptible to and permissive for HIV infection, served as the target cell line. Inhibition of the HIV-induced cytopathic effect was used as the end point. The viability of both HIV- and mock-infected cells was assessed spectrophotometrically via the in situ reduction of 3-(4,5-dimethylthiazol-2-yl)-2,5-diphenyltetrazolium bromide (MTT). […] The percent protection achieved by the compound in HTV-infected cells was calculated by the following formula:
(§3) [formula] whereby (ODT)HIV is the optical density measured with a given concentration of the test compound in HIV-infected cells; (ODC)HIV is the optical density measured for the control unteated HIV-infected cells; (ODC)MOCK is the optical density measured for the control untreated mock-infected cells; all optical density values were determined at 540 nm. […] The ratio of CC50 to IC50 was defined as the selectivity index (SI).

[3] = tested on: HIV; experiment: Test A: inhibition of the HIV-induced cytopathic effect in MT-4 cells (MTT); type: cell-based; conditions: Test A; MT-4 cells, MTT; pIC50 = −log IC50, dose achieving 50% protection
Experimental: as §2, §3

[4] = tested on: HIV; experiment: Test B: HIV infection measured fluorometrically in MT-4 cells engineered with GFP (HIV-specific promotor); type: cell-based; conditions: Human immunodeficiency virus 1, MT4
Experimental: as §1

[5] = Test B: cytotoxicity in mock-infected MT-4 cells engineered with GFP under a constitutional promoter; type: cell-based; conditions: human
Experimental: as §1

[6] = Test A, mock-infected MT-4 cells, MTT, 50% cytotoxic concentration (CC50 in M)

Cc1cc(CCC#N)cc(C)c1Nc1nnc(Cl)c(Nc2ccc(C#N)cc2)n1
melting point: 266 to 267 °C

N#CC=Cc1cc(Br)c(Nc2nnc(Cl)c(Nc3ccc(C#N)cc3)n2)c(Br)c1 (mixture of isomers) [Compound 78]
PCC50 [1]: 5.1

Cc1cc(CCC#N)cc(C)c1Nc1nc(Nc2ccc(C#N)cc2)nnc1C [Compound 2]
PCC50 [2]: <4.0
pIC50 (M) [3]: 9.0 M

Cc1cc(C#N)cc(C)c1Nc1nc(Nc2ccc(C#N)cc2)nnc1C [Compound 5]
PCC50 [2]: <4.0
pIC50 (M) [3]: 8.7 M

Cc1cc(C)c(Nc2cnnc(Nc3ccc(C#N)cc3)n2)c(C)c1 [Compound 7]
PCC50 [2, 6]: 5.5
pIC50 (M) [3]: 9.3 M

Cc1cc(/C=C/C#N)cc(C)c1Nc1cnnc(Nc2ccc(C#N)cc2)n1 [Compound 8]
PCC50 [2]: <4.0
pIC50 (M) [3]: 7.3 M

Cc1cc(CCC#N)cc(C)c1Nc1cnnc(Nc2ccc(C#N)cc2)n1 [Compound 9]
PCC50 [2]: <4.0
pIC50 (M) [3]: 7.8 M

N#Cc1ccc(Nc2nncc(Nc3c(Cl)cc(C#N)cc3Cl)n2)cc1 [Compound 10]
PCC50 [2, 6]: <4.5
pIC50 (M) [3]: 7.6 M

COc1cc(C)c(Nc2nc(Nc3ccc(C#N)cc3)nnc2C)c(C)c1 [Compound 11]
PCC50 [2]: 5.5
pIC50 (M) [3]: 9.2 M

Cc1cc(C)c(Nc2nc(Nc3ccc(C#N)cc3)nnc2C)c(C)c1 [Compound 12]
pIC50 (M) [3]: 8.9 M

Cc1cc(/C=C/C#N)cc(C)c1Nc1nc(Nc2ccc(C#N)cc2)nnc1C [Compound 13]
PCC50 [2]: <4.0
pIC50 (M) [3]: 8.2 M

COc1cc(C)c(Nc2cnnc(Nc3ccc(C#N)cc3)n2)c(C)c1 [Compound 14]
PCC50 [2]: <4.0
pIC50 (M) [3]: 8.8 M

Cc1cc(Br)cc(C)c1Nc1cnnc(Nc2ccc(C#N)cc2)n1 [Compound 15]
PCC50 [2]: <4.0
pIC50 (M) [3]: 8.8 M

Cc1cc(Br)cc(C)c1Nc1nc(Nc2ccc(C#N)cc2)nnc1C [Compound 16]
PCC50 [2]: 4.2
pIC50 (M) [3]: 8.7 M

Cc1cc(C(C)(C)C)cc(C)c1Nc1cnnc(Nc2ccc(C#N)cc2)n1 [Compound 17]
PCC50 [2]: <4.0
pIC50 (M) [3]: 8.0 M

Cc1cc(C(C)(C)C)cc(C)c1Nc1nc(Nc2ccc(C#N)cc2)nnc1C [Compound 18]
PCC50 [2]: <4.0
pIC50 (M) [3]: 8.1 M

Cc1cc(/C=C\C#N)cc(C)c1Nc1nc(Nc2ccc(C#N)cc2)nnc1C [Compound 19]
PCC50 [2]: 4.6
pIC50 (M) [3]: 9.0 M

Cc1cc(CC#N)cc(C)c1Nc1nc(Nc2ccc(C#N)cc2)nnc1C [Compound 20]
PCC50 [2]: <4.6
pIC50 (M) [3]: 8.6 M

Cc1cc(/C=C/C(=O)N(C)C)cc(C)c1Nc1nc(Nc2ccc(C#N)cc2)nnc1C [Compound 22]
PCC50 [2]: <4.6
pIC50 (M) [3]: 7.1 M

COc1cc(C)cc(C)c1Nc1nc(Nc2ccc(C#N)cc2)nnc1C [Compound 23]
PCC50 [2]: 6.4
pIC50 (M) [3]: 8.9 M

Cc1cc(CC#N)cc(C)c1Nc1cnnc(Nc2ccc(C#N)cc2)n1 [Compound 24]
PCC50 [2]: <4.6
pIC50 (M) [3]: 8.8 M

COc1cc(OC)c(Nc2nc(Nc3ccc(C#N)cc3)nnc2C)c(OC)c1 [Compound 25]
PCC50 [2]: 4.4
pIC50 (M) [3]: 8.6 M

Cc1cc(C)c(Nc2nc(Nc3ccc(C#N)cc3)nnc2C)c(CC#N)c1 [Compound 27]
PCC50 [2]: <4.0
pIC50 (M) [3]: 8.3 M

Cc1cc(C(=O)N(C)C)cc(C)c1Nc1nc(Nc2ccc(C#N)cc2)nnc1C [Compound 31]
PCC50 [2]: <4.0
pIC50 (M) [3]: 7.5 M

COc1cc(/C=C/C#N)cc(OC)c1Nc1nc(Nc2ccc(C#N)cc2)nnc1C [Compound 33]
PCC50 [2]: 5.4
pIC50 (M) [3]: 8.6 M

Cc1nnc(Nc2ccc(C#N)cc2)nc1Nc1c(Cl)cc(/C=C/C#N)cc1Cl [Compound 34]
PCC50 [2]: 5.0
pIC50 (M) [3]: 8.6 M

CCOc1cc(C)c(Nc2nc(Nc3ccc(C#N)cc3)nnc2C)c(C)c1 [Compound 35]
PCC50 [2]: <4.6
pIC50 (M) [3]: 8.2 M

CNC(=O)c1cc(C)c(Nc2cnnc(Nc3ccc(C#N)cc3)n2)c(C)c1 [Compound 37]
PCC50 [2]: 4.3
pIC50 (M) [3]: 7.0 M

Cc1cc(OCC#N)cc(C)c1Nc1nc(Nc2ccc(C#N)cc2)nnc1C [Compound 38]
PCC50 [2]: 4.7
pIC50 (M) [3]: 8.9 M

Cc1cc(/C=C/C(=O)N2CCCC2)cc(C)c1Nc1nc(Nc2ccc(C#N)cc2)nnc1C [Compound 39]
PCC50 [2]: <4.0
pIC50 (M) [3]: 7.2 M

COc1cc(CCC#N)cc(OC)c1Nc1nc(Nc2ccc(C#N)cc2)nnc1C [Compound 40]
PCC50 [2]: 5.0
pIC50 (M) [3]: 8.6 M

Cc1cc(OCC#N)cc(C)c1Nc1cnnc(Nc2ccc(C#N)cc2)n1 [Compound 41]
PCC50 [2]: <4.6
pIC50 (M) [3]: 7.6 M

CC(C#N)=Cc1cc(C)c(Nc2nc(Nc3ccc(C#N)cc3)nnc2C)c(C)c1 [Compound 42]
PCC50 [2]: 4.8
pIC50 (M) [3]: 9.1 M

CCOc1cc(C)c(Nc2cnnc(Nc3ccc(C#N)cc3)n2)c(C)c1 [Compound 43]
PCC50 [2]: <4.6
pIC50 (M) [3]: 8.1 M

Cc1cc(C)c(Nc2nnc(Cl)c(Nc3ccc(C#N)cc3)n2)c(C)c1 [Compound 45]
PCC50 [2]: <4.6
pIC50 (M) [3]: 7.6 M

Cc1cc(C)c(Sc2nc(Nc3ccc(C#N)cc3)nnc2Cl)c(C)c1 [Compound 46]
PCC50 [2, 6]: <4.6
pIC50 (M) [3]: 7.9 M

Cc1cc(/C=C/C(=O)N2CCOCC2)cc(C)c1Oc1nc(Nc2ccc(C#N)cc2)nnc1C [Compound 47]
PCC50 [2]: <4.6
pIC50 (M) [3]: 8.1 M

Cc1cc(/C=C/C(N)=O)cc(C)c1Oc1nc(Nc2ccc(C#N)cc2)nnc1C [Compound 48]
IC50 [4]: 0.000631 µM
CC50 [5]: 25.1 µM

Cc1cc(/C=C/C(=O)N(C)C)cc(C)c1Oc1nc(Nc2ccc(C#N)cc2)nnc1C [Compound 50]
PCC50 [1]: 4.7

CCNC(=O)c1cc(C)c(Nc2cnnc(Nc3ccc(C#N)cc3)n2)c(C)c1 [Compound 51]
PCC50 [1]: 5.1

Cc1cc(C(=O)N(C)C)cc(C)c1Nc1cnnc(Nc2ccc(C#N)cc2)n1 [Compound 52]
PCC50 [1]: <4.6

Cc1cc(C=CC#N)cc(C)c1Nc1nnc(Cl)c(Nc2ccc(C#N)cc2)n1 [Compound 53]
PCC50 [1]: 4.9

Cc1cc(/C=C/C#N)cc(C)c1Nc1nc(Nc2ccc(C#N)cc2)nnc1Cl [Compound 54]
PCC50 [1]: 4.9

CNC(=O)/C=C/c1cc(C)c(Oc2nc(Nc3ccc(C#N)cc3)nnc2C)c(C)c1 [Compound 56]
PCC50 [1]: 4.8

CCN(C)C(=O)/C=C/c1cc(C)c(Oc2nc(Nc3ccc(C#N)cc3)nnc2C)c(C)c1 [Compound 57]
PCC50 [1]: 4.7

Cc1cc(/C=C/C(N)=O)cc(C)c1Nc1nc(Nc2ccc(C#N)cc2)nnc1C [Compound 58]
IC50 [4]: 0.251 µM
CC50 [5]: 10 µM

COc1cc(/C=C/C#N)cc(C)c1Nc1nc(Nc2ccc(C#N)cc2)nnc1C [Compound 60]
PCC50 [1]: 6.0

C/C(=C\C#N)c1cc(Cl)c(Nc2nc(Nc3ccc(C#N)cc3)nnc2C)c(Cl)c1 [Compound 61]
PCC50 [1]: 5.4

N#C/C=C/c1cc(F)c(Nc2nnc(Cl)c(Nc3ccc(C#N)cc3)n2)c(F)c1 [Compound 62]
melting point: 276 to 277 °C
IC50 [4]: 0.00316 µM
CC50 [5]: 25.1 µM

N#Cc1ccc(Nc2cnnc(Nc3c(F)cc(I)cc3F)n2)cc1 [Compound 63]
PCC50 [1]: 4.9

COc1cc(C)c(Nc2nnc(Cl)c(Nc3ccc(C#N)cc3)n2)c(C)c1 [Compound 64]
PCC50 [1]: 4.7

Cc1cc(/C=C/C#N)cc(Cl)c1Nc1nc(Nc2ccc(C#N)cc2)nnc1C [Compound 65]
PCC50 [1]: 5.3

COc1cc(C(C)=CC#N)cc(C)c1Nc1nc(Nc2ccc(C#N)cc2)nnc1C [Compound 66]
PCC50 [1]: 5.7

COc1cc(/C(C)=C/C#N)cc(OC)c1Nc1nc(Nc2ccc(C#N)cc2)nnc1C [Compound 67]
PCC50 [1]: 4.9

COc1cc(/C(C)=C/C#N)cc(Cl)c1Nc1nc(Nc2ccc(C#N)cc2)nnc1C [Compound 68]
PCC50 [1]: 5.2

C/C(=C\C#N)c1cc(C)c(Nc2nc(Nc3ccc(C#N)cc3)nnc2C)c(Cl)c1 [Compound 69]
PCC50 [1]: 5.7

COc1cc(/C=C/C#N)cc(Cl)c1Nc1nc(Nc2ccc(C#N)cc2)nnc1C [Compound 70]
PCC50 [1]: 6.2

COc1cc(C=C(C)C#N)cc(C)c1Nc1nc(Nc2ccc(C#N)cc2)nnc1C [Compound 71]
PCC50 [1]: 5.1

N#CCCc1cc(Br)c(Nc2nnc(Cl)c(Nc3ccc(C#N)cc3)n2)c(Br)c1 [Compound 73]
PCC50 [1]: <4.6

N#C/C=C/c1cc(Cl)c(Nc2nnc(Cl)c(Nc3ccc(C#N)cc3)n2)c(Cl)c1 [Compound 76]
PCC50 [1]: <4.6

N#C/C=C/c1cc(Cl)c(Nc2nnc(Cl)c(Nc3ccc(C#N)cc3)n2)c(Br)c1 [Compound 77]
PCC50 [1]: 5.0
